{"source": "patent US20180333382A1", "about": "“PHARMACEUTICAL COMPOSITIONS COMPRISING DGLA AND USE OF SAME” (DS Biopharma Limited, priority 2017, published 2018)", "test": "Phase one study part 2: multiple dose (28 days) plasma PK of free and total DGLA", "type": "in vivo, human", "settings": "for Tmax / half-life: human, plasma, oral; for half-life: read-out: t1/2, median, free DGLA, baseline-corrected plasma (converted); for free DGLA Peak Trough Fluctuation (PTF), mean: steady state Day 28 (0-24 hours)", "procedure": "Multiple dose part two of the study comprised two cohorts (Cohorts five and six) of eight subjects each, who were administered multiple doses of study drug in the fasted state for 28 days. Subjects in Cohorts five and six received DS107G at 2000 or 4000 mg, respectively, or matching placebo once daily for 28 days. Cohort six was started after Cohort five's safety data were evaluated by the SMC. No interim analysis was planned. […]\nIn Part two of the study (Cohorts five and six), subjects were administered study drug (500-mg DS107G capsules or matching placebo capsules) once daily in the fasted state for 28 days. Subjects in Cohort five received study drug first and, if they tolerated the 2000-mg daily dose for the first 14 days, subjects in Cohort six were started on the 4000-mg daily dose for 28 days.\nPK parameter was computed after correcting the dosed DGLA concentrations with baseline DGLA concentrations.", "key": {"[1]": {"settings": "4000 mg once daily, Day 28, 0 to 24 hours"}, "[2]": {"settings": "4000 mg once daily, Day 28, 0 to 168 hours"}, "[3]": {"settings": "4000 mg once daily, Day 28: 0 to 24 hours"}}, "note": "Like-named read-outs stand apart in the source and are kept apart here.", "data": [{"smiles": "CCCCC/C=C\\C/C=C\\C/C=C\\CCCCCCC(=O)O", "note": "[DS107G, Dihomo gamma linolenic acid]", "values": [{"measurement": "AUC0-24, mean, free DGLA, baseline-corrected plasma", "setting": "[1]", "value": 16155.2, "unit": "ng·h/mL"}, {"measurement": "AUC0-24/Dose, mean, free DGLA, baseline-corrected plasma", "setting": "[1]", "value": 4.04, "unit": "h/kL"}, {"measurement": "AUC0-24/Dose, mean, total DGLA, baseline-corrected plasma", "setting": "[1]", "value": 465.14, "unit": "h/kL"}, {"measurement": "AUC0-inf, mean, free DGLA, baseline-corrected plasma", "setting": "[1]", "value": 22926.3, "unit": "ng·h/mL"}, {"measurement": "AUC0-inf/Dose, mean, free DGLA, baseline-corrected plasma", "setting": "[1]", "value": 5.73, "unit": "h/kL"}, {"measurement": "AUC0-inf/Dose, mean, total DGLA, baseline-corrected plasma", "setting": "[1]", "value": 1194.91, "unit": "h/kL"}, {"measurement": "CL/F, mean, free DGLA, baseline-corrected plasma", "setting": "[1]", "value": 0.1865, "unit": "kL/h"}, {"measurement": "Cmax, mean, free DGLA, baseline-corrected plasma", "setting": "[1]", "value": 2873.2, "unit": "ng/mL"}, {"measurement": "Cmax/Dose, mean, free DGLA, baseline-corrected plasma", "setting": "[1]", "value": 0.718, "unit": "kL⁻¹"}, {"measurement": "Cmax/Dose, mean, total DGLA, baseline-corrected plasma", "setting": "[1]", "value": 22.717, "unit": "kL⁻¹"}, {"measurement": "λz, mean, free DGLA, baseline-corrected plasma", "setting": "[1]", "value": 0.0596, "unit": "h⁻¹"}, {"measurement": "λz, mean, total DGLA, baseline-corrected plasma", "setting": "[1]", "value": 0.0471, "unit": "h⁻¹"}, {"measurement": "AUC0-24, mean, free DGLA, baseline-corrected plasma", "setting": "[2]", "value": 16155.2, "unit": "ng·h/mL"}, {"measurement": "AUC0-24/Dose, mean, free DGLA, baseline-corrected plasma", "setting": "[2]", "value": 4.04, "unit": "h/kL"}, {"measurement": "AUC0-24/Dose, mean, total DGLA, baseline-corrected plasma", "setting": "[2]", "value": 465.14, "unit": "h/kL"}, {"measurement": "AUC0-inf, mean, free DGLA, baseline-corrected plasma", "setting": "[2]", "value": 43184.3, "unit": "ng·h/mL"}, {"measurement": "AUC0-inf/Dose, mean, free DGLA, baseline-corrected plasma", "setting": "[2]", "value": 10.80, "unit": "h/kL"}, {"measurement": "AUC0-inf/Dose, mean, total DGLA, baseline-corrected plasma", "setting": "[2]", "value": 1575.98, "unit": "h/kL"}, {"measurement": "CL/F, mean, free DGLA, baseline-corrected plasma", "setting": "[2]", "value": 0.1266, "unit": "kL/h"}, {"measurement": "Cmax, mean, free DGLA, baseline-corrected plasma", "setting": "[2]", "value": 2873.2, "unit": "ng/mL"}, {"measurement": "Cmax/Dose, mean, free DGLA, baseline-corrected plasma", "setting": "[2]", "value": 0.718, "unit": "kL⁻¹"}, {"measurement": "Cmax/Dose, mean, total DGLA, baseline-corrected plasma", "setting": "[2]", "value": 22.717, "unit": "kL⁻¹"}, {"measurement": "λz, mean, free DGLA, baseline-corrected plasma", "setting": "[2]", "value": 0.0404, "unit": "h⁻¹"}, {"measurement": "λz, mean, total DGLA, baseline-corrected plasma", "setting": "[2]", "value": 0.0194, "unit": "h⁻¹"}, {"measurement": "% PTF (peak trough fluctuation), mean, free DGLA, steady-state baseline-corrected plasma", "setting": "[3]", "value": 431.97, "unit": "%"}, {"measurement": "% PTF (peak trough fluctuation), mean, total DGLA, steady-state baseline-corrected plasma", "setting": "[3]", "value": 44.90, "unit": "%"}, {"measurement": "AR(AUC) accumulation ratio, mean, free DGLA, steady-state baseline-corrected plasma", "setting": "[3]", "value": 1.561}, {"measurement": "AR(AUC) accumulation ratio, mean, total DGLA, steady-state baseline-corrected plasma", "setting": "[3]", "value": 4.163}, {"measurement": "AR(Cmax) accumulation ratio, mean, free DGLA, steady-state baseline-corrected plasma", "setting": "[3]", "value": 1.385}, {"measurement": "AR(Cmax) accumulation ratio, mean, total DGLA, steady-state baseline-corrected plasma", "setting": "[3]", "value": 3.440}, {"measurement": "CLss/F, mean, free DGLA, steady-state baseline-corrected plasma", "setting": "[3]", "value": 0.2858, "unit": "kL/h"}, {"measurement": "CLss/F, mean, total DGLA, steady-state baseline-corrected plasma", "setting": "[3]", "value": 0.0025, "unit": "kL/h"}, {"measurement": "Cavg, mean, free DGLA, steady-state baseline-corrected plasma", "setting": "[3]", "value": 673.1, "unit": "ng/mL"}, {"measurement": "Cavg, mean, total DGLA, steady-state baseline-corrected plasma", "setting": "[3]", "value": 77523.9, "unit": "ng/mL"}, {"measurement": "Cmin, mean, free DGLA, steady-state baseline-corrected plasma", "setting": "[3]", "value": 147.0, "unit": "ng/mL"}, {"measurement": "Cmin, mean, total DGLA, steady-state baseline-corrected plasma", "setting": "[3]", "value": 59216.7, "unit": "ng/mL"}, {"measurement": "Vzss/F, mean, free DGLA, steady-state baseline-corrected plasma", "setting": "[3]", "value": 5.7563, "unit": "kL"}, {"measurement": "Vzss/F, mean, total DGLA, steady-state baseline-corrected plasma", "setting": "[3]", "value": 0.1047, "unit": "kL"}, {"measurement": "tmin, median, free DGLA, steady-state baseline-corrected plasma", "setting": "[3]", "value": 8.00, "unit": "h"}, {"measurement": "tmin, median, total DGLA, steady-state baseline-corrected plasma", "setting": "[3]", "value": 2.00, "unit": "h"}, {"measurement": "time to reach steady-state plasma concentrations, free and total DGLA", "setting": "2000 and 4000 mg daily", "value": "~14", "unit": "days"}, {"measurement": "free DGLA mean baseline-corrected AUC0-24, 4000 mg vs 2000 mg dose", "setting": "Day 1", "value": "~2.5", "unit": "fold"}, {"measurement": "free DGLA mean baseline-corrected Cmax, 4000 mg vs 2000 mg dose", "setting": "Day 1", "value": "~3", "unit": "fold"}, {"measurement": "total DGLA mean baseline-corrected AUC0-24, 4000 mg vs 2000 mg dose", "setting": "Day 1", "value": "~1.5", "unit": "fold"}, {"measurement": "total DGLA mean baseline-corrected Cmax, 4000 mg vs 2000 mg dose", "setting": "Day 1", "value": "~1.5", "unit": "fold"}, {"measurement": "free DGLA mean baseline-corrected AUC0-24, 4000 mg vs 2000 mg dose", "setting": "Day 28", "value": "~1.7", "unit": "fold"}, {"measurement": "free DGLA mean baseline-corrected Cmax, 4000 mg vs 2000 mg dose", "setting": "Day 28", "value": "~1.4", "unit": "fold"}, {"measurement": "total DGLA mean baseline-corrected AUC0-24, 4000 mg vs 2000 mg dose", "setting": "Day 28", "value": "~1.4", "unit": "fold"}, {"measurement": "total DGLA mean baseline-corrected Cmax, 4000 mg vs 2000 mg dose", "setting": "Day 28", "value": "~1.2", "unit": "fold"}, {"measurement": "time of peak mean concentration of free DGLA after dosing", "setting": "Days 1 and 28, 2000 and 4000 mg daily", "value": "about 4 hours"}, {"measurement": "Tmax", "setting": "both sexes, both dose cohorts, Day 1 and Day 28, read-out: free DGLA median tmax", "value": "4 to 5", "unit": "h"}, {"measurement": "half-life", "setting": "2000 mg, 2000 mg once daily, Day 1, 0 to 24 hours", "value": 4.71, "unit": "h"}, {"measurement": "Tmax", "setting": "2000 mg, 2000 mg once daily, Day 1, 0 to 24 hours, read-out: tmax, median, free DGLA, baseline-corrected plasma", "value": 4, "unit": "h"}, {"measurement": "half-life", "setting": "2000 mg, 2000 mg once daily, Day 28, 0 to 24 hours", "value": 14, "unit": "h"}, {"measurement": "Tmax", "setting": "2000 mg, 2000 mg once daily, Day 28, 0 to 24 hours, read-out: tmax, median, free DGLA, baseline-corrected plasma", "value": 4, "unit": "h"}, {"measurement": "half-life", "setting": "2000 mg, 2000 mg once daily, Day 28, 0 to 168 hours", "value": 63.6, "unit": "h"}, {"measurement": "Tmax", "setting": "2000 mg, 2000 mg once daily, Day 28, 0 to 168 hours, read-out: tmax, median, free DGLA, baseline-corrected plasma", "value": 4, "unit": "h"}, {"measurement": "half-life", "setting": "4000 mg, 4000 mg once daily, Day 1, 0 to 24 hours", "value": 5.92, "unit": "h"}, {"measurement": "Tmax", "setting": "4000 mg, 4000 mg once daily, Day 1, 0 to 24 hours, read-out: tmax, median, free DGLA, baseline-corrected plasma", "value": 5, "unit": "h"}, {"measurement": "half-life", "setting": "4000 mg, 4000 mg once daily, Day 28, 0 to 24 hours", "value": 12.7, "unit": "h"}, {"measurement": "Tmax", "setting": "4000 mg, 4000 mg once daily, Day 28, 0 to 24 hours, read-out: tmax, median, free DGLA, baseline-corrected plasma", "value": 4, "unit": "h"}, {"measurement": "half-life", "setting": "4000 mg, 4000 mg once daily, Day 28, 0 to 168 hours", "value": 48.2, "unit": "h"}, {"measurement": "Tmax", "setting": "4000 mg, 4000 mg once daily, Day 28, 0 to 168 hours, read-out: tmax, median, free DGLA, baseline-corrected plasma", "value": 4, "unit": "h"}, {"measurement": "increase of average concentration at steady state when dose doubled from 2000 to 4000 mg daily, free DGLA", "setting": "in vivo", "value": 1.6, "unit": "fold"}, {"measurement": "increase of average concentration at steady state when dose doubled from 2000 to 4000 mg daily, total DGLA", "setting": "in vivo", "value": 1.2, "unit": "fold"}, {"measurement": "free DGLA Peak Trough Fluctuation (PTF), mean", "setting": "first value of both dose cohorts (2000 mg)", "value": "~430", "unit": "%"}, {"measurement": "free DGLA Peak Trough Fluctuation (PTF), mean", "setting": "second value of both dose cohorts (4000 mg)", "value": "~490", "unit": "%"}]}]}
